From ChEMBL document CHEMBL3588774, “Tyrosyl-DNA Phosphodiesterase I Inhibitors from the Australian Plant Macropteranthes leichhardtii” (J Nat Prod, 2015)
The source made the active and inactive calls. No cut-off for these calls is given here.

How the values were obtained:
[1] = biological target: T1, Tyrosyl-DNA phosphodiesterase 1 (Homo sapiens, UniProt Q9NUW8); assay: Inhibition of Tdp1 (unknown origin) incubated for 30 mins using 5'-/6-TAMN/AGGATCTAAAAGACTT/3BHQ_2/-3' substrate by microplate reader based assay
[2] = biological target: T1, Tyrosyl-DNA phosphodiesterase 1; assay: Inhibition of Tdp1 (unknown origin) up to 40 uM incubated for 30 mins using 5'-/6-TAMN/AGGATCTAAAAGACTT/3BHQ_2/-3' substrate by microplate reader based assay

T1 sequence (Q9NUW8 whole entry): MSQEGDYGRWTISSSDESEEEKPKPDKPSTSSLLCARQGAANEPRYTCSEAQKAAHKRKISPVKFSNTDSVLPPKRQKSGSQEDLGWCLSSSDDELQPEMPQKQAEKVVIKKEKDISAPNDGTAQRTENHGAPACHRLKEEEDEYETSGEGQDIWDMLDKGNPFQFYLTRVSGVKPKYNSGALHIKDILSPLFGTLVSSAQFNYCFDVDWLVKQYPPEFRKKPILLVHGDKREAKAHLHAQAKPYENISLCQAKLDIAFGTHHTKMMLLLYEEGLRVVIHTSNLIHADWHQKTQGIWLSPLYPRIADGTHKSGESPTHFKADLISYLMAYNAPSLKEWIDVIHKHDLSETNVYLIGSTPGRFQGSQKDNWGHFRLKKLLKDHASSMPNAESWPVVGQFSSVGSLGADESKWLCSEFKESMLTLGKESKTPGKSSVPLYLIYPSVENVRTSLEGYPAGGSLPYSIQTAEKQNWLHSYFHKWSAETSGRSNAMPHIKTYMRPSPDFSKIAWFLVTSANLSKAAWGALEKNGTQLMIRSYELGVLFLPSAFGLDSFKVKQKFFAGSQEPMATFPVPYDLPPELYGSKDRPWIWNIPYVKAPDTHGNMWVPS

SMILES	IC50 [1] [nM]	inhibition [2]
COc1ccc(O[C@@H]2O[C@H](COC(=O)c3cc(O)c(O)c(O)c3)[C@@H](O)[C@H](O)[C@H]2O)cc1OC	1000	
COc1cc(O[C@@H]2O[C@H](COC(=O)c3cc(O)c(O)c(O)c3)[C@@H](O)[C@H](O)[C@H]2O)cc(OC)c1OC		inactive
COc1cc(C[C@@H](CO)O[C@@H]2O[C@H](COC(=O)c3cc(O)c(O)c(O)c3)[C@@H](O)[C@H](O)[C@H]2O)ccc1O	1000	

Now from value to compound:

IC50 [1] [nM]	inhibition [2]	SMILES
	inactive	COc1cc([C@@H]2O[C@H]3[C@H](O[C@H]2COC(=O)c2cc(O)c(O)c(O)c2)O[C@H](CO)[C@@H](O)[C@@H]3O)ccc1O
	inactive	COc1cc([C@@H]2O[C@H]3[C@H](O[C@H]2CO)O[C@H](COC(=O)c2cc(O)c(O)c(O)c2)[C@@H](O)[C@@H]3O)ccc1O
